From patent publication EP0116431B1, “Aromatase inhibiting pyrimidine derivatives” (ELI LILLY AND COMPANY, priority 1983, dated 1984)
Where two headings read alike, the source gives them in different places.

Legend:
[1] = test system: DMBA-induced Mammary Tumor; test: DMBA-induced mammary tumor inhibition; assay type: in vivo, Sprague-Dawley rats; conditions: for Mean Tumor Area (mm^2) Start: start of test
Description: Mammary tumors were produced in female Sprague-Dawley rats which were 50-60 days old by the gavage administration of 20 mg of 7,12-dimethylbenz[a]anthracene (DMBA). About six weeks after DMBA administration, the mammary glands were palpated at weekly intervals for the appearance of tumors. Whenever one or more tumors appeared and were measurable in an animal, that animal was selected for experimentation. […] Each control and test group contained 8 animals. The test compound was administered either mixed into the food at a concentration of 300 ppm (corresponding to an appropriate daily dose of 30 mg/kg) or the compounds were dissolved or suspended in corn oil and administered once daily by gavage. Every experiment included a group of control rats having tumors and were either given food without the compound admixed or corn oil vehicle by gavage, depending on how the test compound was administered. […] The area of each tumor was calculated by multiplying the shortest and longest diameters of the tumor. The treatment and measurement of animals continued for 4-8 weeks at which time the final areas of the tumors were determined. For each compound (and control) at each dose level, the change in the mean tumor area was determined. The mean change was analyzed for its significance using Dunnett's t-test.

synthesis of estrogens = conditions: seven days, testosterone propionate-treated immature female rats
[2] = 300 ppm in the diet, 5 weeks test
[3] = 300 ppm in feed (approximately 30 mg/kg/day)

| SMILES | Mean Tumor Area (mm^2) Finish ([1]; 1 mg/kg daily by gavage, 5 weeks) | Mean Tumor Area (mm^2) Start ([1]; 1 mg/kg daily by gavage, 5 weeks test) | Mean Tumor Area (mm^2) Finish ([1]; 5 mg/kg daily by gavage, 4 weeks) | Mean Tumor Area (mm^2) Start ([1]; 5 mg/kg daily by gavage, 4 weeks test) | Mean Tumor Area (mm^2) Finish ([1]; 7.5 mg/kg daily by gavage, 5 weeks) | Mean Tumor Area (mm^2) Start ([1]; 7.5 mg/kg daily by gavage, 5 weeks test) | Mean Tumor Area (mm^2) Finish ([1]; 15 mg/kg daily by gavage, 5 weeks) | Mean Tumor Area (mm^2) Start ([1]; 15 mg/kg daily by gavage, 5 weeks test) | Mean Tumor Area (mm^2) Finish ([1]; 30 mg/kg daily by gavage, 4 weeks) | Mean Tumor Area (mm^2) Start ([1]; 30 mg/kg daily by gavage, 4 weeks test) | Mean Tumor Area (mm^2) Finish ([1]; 30 mg/kg daily by gavage, 5 weeks) | Mean Tumor Area (mm^2) Start ([1]; 30 mg/kg daily by gavage, 5 weeks test) | Mean Tumor Area (mm^2) Finish ([1]; 300 ppm in the diet, 5 weeks) | Mean Tumor Area (mm^2) Start [1, 2] | Mean Tumor Area (mm^2) Finish ([1]; 300 ppm in the diet, 8 weeks) | Mean Tumor Area (mm^2) Start ([1]; 300 ppm in the diet, 8 weeks test) | Mean Uterine Weight (mg) (synthesis of estrogens; [3]) | Mean Uterine Weight (mg) (synthesis of estrogens; 30 ppm in feed (approximately 3 mg/kg/day)) |
| --- | --- | --- | --- | --- | --- | --- | --- | --- | --- | --- | --- | --- | --- | --- | --- | --- | --- | --- |
| OC(c1ccc(Cl)cc1)(c1ccc(Cl)cc1)c1cncnc1 [compound 29, α,α-bis(4-chlorophenyl)-5-pyrimidinemethanol] | 210^+ mm^2 | 66 mm^2 | 123.5 mm^2 | 56.3 mm^2 | 159^+ mm^2 | 63 mm^2 | 9^+ mm^2 | 50 mm^2 | 34.3 mm^2 | 71.5 mm^2 | 146^+ mm^2 | 69 mm^2 | 10.0^+ mm^2 | 60.7 mm^2 | 355^+ mm^2 | 160.4 mm^2 | 75.00^+ mg |  |
| Clc1ccc(C(c2ccc(Cl)cc2)c2cncnc2)cc1 [compound 27, 5-bis(4-chlorophenyl)methylpyrimidine] |  |  |  |  |  |  |  |  |  |  |  |  | 154 mm^2 | 78.6 mm^2 |  |  | 80.20^+ mg | 92.25^+ mg |
